Measurements from ChEMBL document CHEMBL1127385, “Synthesis and diuretic activity of alkyl- and arylguanidine analogs of N,N'-dicyclohexyl-4-morpholinecarboxamidine in rats and dogs” (J Med Chem, 1994).

Columns and labels:
Settings in all cases: in vivo, po
Rattus norvegicus [1] = experiment: Total electrolytic excretion of chlorine in urine of rats after peroral administration of 348 uM/Kg of drug; type: ADME, organism-based
Rattus norvegicus [2] = experiment: Total electrolytic excretion of potassium in urine of rats after peroral administration of 105 uM/Kg of drug; type: ADME, organism-based
Rattus norvegicus [3] = experiment: Total electrolytic excretion of chlorine in urine of rats after peroral administration of 34.8 uM/Kg of drug; type: ADME, organism-based
Rattus norvegicus [4] = experiment: Total electrolytic excretion of sodium in urine of rats after peroral administration of 105 uM/Kg of drug; type: ADME, organism-based
Rattus norvegicus [5] = experiment: Total electrolytic excretion of potassium in urine of rats after peroral administration of 34.8 uM/Kg of drug; type: ADME, organism-based
Rattus norvegicus [6] = experiment: Total electrolytic excretion of potassium in urine of rats after peroral administration of 348 uM/Kg of drug; type: ADME, organism-based
Rattus norvegicus [7] = experiment: Total electrolytic excretion of chlorine in urine of rats after peroral administration of 105 uM/Kg of drug; type: ADME, organism-based
Rattus norvegicus [8] = experiment: Tested for the diuretic activity by measuring the urinary volume after peroral administering 34.8 uM/Kg of drug in rats; type: ADME, organism-based, Urine
Rattus norvegicus [9] = experiment: Tested for the diuretic activity by measuring the urinary volume after peroral administering 348 uM/Kg of drug in rats; type: ADME, organism-based, Urine
Rattus norvegicus [10] = experiment: Total electrolytic excretion of sodium in urine of rats after peroral administration of 34.8 uM/Kg of drug; type: ADME, organism-based
Rattus norvegicus [11] = experiment: Total electrolytic excretion of sodium in urine of rats after peroral administration of 348 uM/Kg of drug; type: ADME, organism-based
Rattus norvegicus [12] = experiment: Tested for the diuretic activity by measuring the urinary volume after peroral administering 105 uM/Kg of drug in rats; type: ADME, organism-based, Urine
Rattus norvegicus [13] = experiment: Ratio of Total electrolytic excretion of sodium and potassium in urine of rats after peroral administration of 105 uM/Kg of drug; type: ADME, organism-based
Rattus norvegicus [14] = experiment: Ratio of Total electrolytic excretion of sodium and potassium in urine of rats after peroral administration of 348 uM/Kg of drug; type: ADME, organism-based
Rattus norvegicus [15] = experiment: Ratio of Total electrolytic excretion of sodium and potassium in urine of rats after peroral administration of 34.8 uM/Kg of drug; type: ADME, organism-based

- Excretion Cl- (Rattus norvegicus [1]): 1.39 m equiv
- Excretion K+ (Rattus norvegicus [2]): 0.37 m equiv
- Excretion Cl- (Rattus norvegicus [3]): 1.04 m equiv
- Excretion Na+ (Rattus norvegicus [4]): 1.02 m equiv
- Excretion K+ (Rattus norvegicus [5]): 0.27 m equiv
- Excretion K+ (Rattus norvegicus [6]): 0.4 m equiv
- Excretion Cl- (Rattus norvegicus [7]): 1.12 m equiv
- V (Rattus norvegicus [8]): 5.6 mL
- V (Rattus norvegicus [9]): 9 mL
- Excretion Na+ (Rattus norvegicus [10]): 0.93 m equiv
- Excretion Na+ (Rattus norvegicus [11]): 1.37 m equiv
- V (Rattus norvegicus [12]): 7.3 mL
- Ratio (Rattus norvegicus [13]): 2.8
- Ratio (Rattus norvegicus [14]): 3.4
- Ratio (Rattus norvegicus [15]): 3.4
Compound: c1ccc(N/C(=N/C2CCCCC2)N2CCOCC2)cc1
